In US4167511A, “Methylsilacyclopentenyl-containing silylating agents and method therefor” (Dow Corning Corporation, priority 1978, dated 1979):

Test: Silylating power: half-life of silylating agent in excess isopropyl alcohol at 35° C. (1H n.m.r.)
Assay type: physicochemical
Details: for Half-life in Excess Isopropanol: 0.1 ml. silylating agent in 0.5 ml. anhydrous isopropyl alcohol, 35° C., n.m.r.
Description: The compositions of this invention have unexpected silylating power. By the terms silylating and silylation it is meant a process wherein an active-hydrogen, i.e. one bond to an oxygen, sulfur or nitrogen atom, in a compound is replaced with a hydrocarbon-substituted silyl radical. Silylation, according to the process of this invention proceeds rapidly and, in many cases, essentially quantitatively thereby replacing an active-hydrogen with a methylsilacyclopentenyl radical. By silylating power it is meant the ability of a silylating agent to silylate isopropyl alcohol as indicated by the half-life of the silylating agent in excess isopropyl alcohol at 35° C., using standard chemical kinetic measuring methods hereinafter described. Silylating power is inversely related to said half-life.
Standard nuclear magnetic resonance (n.m.r.) tubes, 5 mm. O.D.×205 mm. long, were first charged with 0.1 ml. of the silylating agents listed in the Table and then with 0.5 ml. of anhydrous isopropyl alcohol using a dry box to insure anhydrous conditions. Immediately after the addition of isopropyl alcohol the tubes were stoppered, inverted at least once to mix the reactants, removed from the dry box, and, within 30 seconds after the addition of isopropyl alcohol, were placed in a varian A-60 ^1 H n.m.r. spectometer at 35° C. The n.m.r. spectrometer was preset to record the signal of the hydrogen atoms in the silicon-bonded methyl group. In repeat experiments the n.m.r. spectrometer was preset to record the signal of the hydrogen atoms in the methyl groups of N-methylacetamideor the nitrogen-bound hydrogen atom in epsilon-caprolactam. Where possible the reaction was followed by taking several readings of the appropriate n.m.r. signal intensity over a period of time.
The compositions of this invention have a half-life which is too short to measure by this technique since they are completely reacted before the reaction mixture is placed in the n.m.r. spectrometer.

| Molecule | Half-life in Excess Isopropanol | silylating power (compared in words with triorganosilyl analogs, inversely related to half-life in excess isopropyl alcohol at 35° C.) |
| --- | --- | --- |
| C=C[Si](C)(C)N(C)C(C)=O | 240 min | – |
| CC(=O)N(C)[Si](C)(C)c1ccccc1 | 55 min | – |
| CC(=O)N(C)[Si](C)(C)CCC(F)(F)F | 40 min | – |
| methylsilacyclopentenyl-N-methylacetamide | – | greater than that of trimethylsilyl-N-methylacetamide, dimethylvinylsilyl-N-methylacetamide, dimethylphenylsilyl-N-methylacetamide and dimethyl-3,3,3-trifluoropropylsllyl-N-methylacetamide |
